Earlier results in patent publication US20080131492A1, “Dosage forms for movement disorder treatment” (Spherics, Inc., priority 2006, published 2008).

Settings: doses of 400 mg per day

Structure (SMILES): C[C@@](Cc1ccc(O)c(O)c1)(NN)C(=O)O [carbidopa]
- adverse effects: fails to elicit adverse effects
